Reference: PMC10825133, “Repurposing proteasome inhibitors for improved treatment of triple-negative breast cancer” (Cell Death Discovery, 2024)
Like-named read-outs stand apart in the source and are kept apart here. Residues, ends and D or L forms follow the SMILES beside them. *: point of attachment. Cbz = O=C(OCc1ccccc1)*

Key:
[1] = tested on: MDA-MB-468 cells; experiment: Resazurin-based cell viability assay, monotherapy drug screen; design: species or system human; AUC: scale not given here; conditions: for IC50: Homo sapiens; for AUC: area under the dose response curve, 24 h
Procedure: (§1) Eighteen pharmaceutical compounds were purchased from Selleckchem. […] The stock solutions were stored at -80°C. […] New drug plates were prepared for each drug screen.
(§2) To determine the optimal seeding density and ensure that the cells were in the exponential phase during the duration of the experiment (approx. 52h), each cell line (BT-549, CAL-148, HCC1806, HCC38, HCC70, MCF-10A, MCF-7, MDA-MB-436, MDA-MB-453, and MDA-MB-468) was seeded at different concentrations (1000 to 16000 cells) per 96-well, as previously described. Cell viability was measured daily (day 0 [plating day] to day 4) using 0.2 mg/ml resazurin solution prepared from resazurin sodium salt (Fisher Scientific) dissolved in sterile 1xPBS (ThermoFisher Scientific). Before use, the resazurin solution was brought to RT before 10 µl (10% of cell medium volume) was added to each 96-well and incubated for 4h at 37°C. The absorbance was measured with a 560 nm excitation filter and a 615 nm emission filter in a Wallac 1420 VICTOR2™ microplate reader (Perkin Elmer). The slope of the curve was used to determine the optimal seeding density, i.e., the highest seeding density with linear growth between days 1 and 3.

[2] = tested on: MDA-MB-436 cells; experiment: as above; design: species or system human; AUC: scale not given here; conditions: for IC50: Homo sapiens; for AUC: area under the dose response curve, 24 h; for GRmax: drug efficacy at highest tested dose (<0 cytotoxic, 0 cytostatic, >0 partial growth inhibition)
Procedure: as §1, §2

[3] = tested on: HCC1806 cells; experiment: as above; design: species or system human; AUC: scale not given here; conditions: for AUC: area under the dose response curve, 24 h; for GRmax: drug efficacy at highest tested dose (<0 cytotoxic, 0 cytostatic, >0 partial growth inhibition); for IC50: Homo sapiens
Procedure: as §1, §2

[4] = tested on: HCC70 cells; experiment: as above; design: species or system human; AUC: scale not given here; conditions: for AUC: area under the dose response curve, 24 h; for GRmax: drug efficacy at highest tested dose (<0 cytotoxic, 0 cytostatic, >0 partial growth inhibition); for IC50: Homo sapiens
Procedure: as §1, §2

[5] = tested on: BT-549 cells; experiment: as above; design: species or system human; AUC: scale not given here; conditions: for AUC: area under the dose response curve, 24 h; for GRmax: drug efficacy at highest tested dose (<0 cytotoxic, 0 cytostatic, >0 partial growth inhibition); for IC50: Homo sapiens
Procedure: as §1, §2

[6] = tested on: MCF-7 cells; experiment: as above; design: species or system human; AUC: scale not given here; conditions: for IC50: Homo sapiens; for AUC: area under the dose response curve, 24 h; for GRmax: drug efficacy at highest tested dose (<0 cytotoxic, 0 cytostatic, >0 partial growth inhibition)
Procedure: as §1, §2

[7] = tested on: MCF-10A cells; experiment: as above; design: species or system human; AUC: scale not given here; conditions: for IC50: Homo sapiens; for AUC: area under the dose response curve
Procedure: as §1, §2

[8] = tested on: CAL-148 cells; experiment: as above; design: species or system human; AUC: unit not given beside the values; conditions: for AUC: area under the dose response curve, 24 h; for GRmax: drug efficacy at highest tested dose (<0 cytotoxic, 0 cytostatic, >0 partial growth inhibition); for IC50: Homo sapiens
Procedure: (§3) Eighteen pharmaceutical compounds were purchased from Selleckchem (Supplementary Table 2). Stock solutions were prepared using dimethyl sulfoxide (DMSO; Merck), physiological saline (sodium chloride 0.9%) or Milli-Q water, and stored at −80 °C. […] Matched concentration solvent vehicle controls were used for each drug concentration. The drug screens were performed in triplicate and repeated three (monotherapy) or two (combination therapy) times (Fig. 7).
(§4) The optimal seeding density per 96-well was determined for each cell line as previously described. The cells were seeded at a density of 4.0 × 10^3 to 7.5 × 10^3 (cell type dependent) in 96-well clear, flat-bottom microplates (Corning Life Sciences, Sigma-Aldrich) in 100 µl complete culture medium (Supplementary Table 1) and cultured for 24 h. Cell viability was determined using the resazurin assay in untreated cells at the time of plating (t = 0) and treated cells after 24 h drug treatment (Fig. 7). Percentage cell viability was calculated as 100% × (absorbance of treated cells – absorbance of background controls) / (absorbance of matched solvent vehicle controls – absorbance of background controls). The area under the curve (AUC), half-maximal inhibitory concentration (IC50), drug potency (GR50), and drug efficacy (GRmax) were determined for each compound using the GRmetrics (version 1.20.0) package in R. The monotherapy data were evaluated with the IDACombo (version 1.0.2) package in R to predict potential drug combinations (Table 1). SynergyFinder (version 3.2.10) package in R was used to identify synergistic drug combinations.
(§5) Eighteen pharmaceutical compounds were purchased from Selleckchem. […] The solubility of the compound was enhanced by pre-heating the solvent (lukewarm), if necessary. […] The stock solutions were stored at -80°C. […] Matched concentration solvent vehicle controls were used for each drug concentration. The drug screens were performed in triplicate and repeated three times for the monotherapies and twice for the combination treatments. The drug(s) and corresponding controls were plated in 96-well PCR plates (VWR) and stored at -20°C (Fig. 6). The drug plates were thawed, centrifuged (3000 rpm for 30s), and acclimatized to RT before the drugs were added to the cells. New drug plates were prepared for each drug screen.
Cell viability was measured daily (day 0 [plating day] to day 4) using 0.2 mg/ml resazurin solution prepared from resazurin sodium salt (Fisher Scientific) dissolved in sterile 1xPBS (ThermoFisher Scientific). Before use, the resazurin solution was brought to RT before 10 µl (10% of cell medium volume) was added to each 96-well and incubated for 4h at 37°C. […] The slope of the curve was used to determine the optimal seeding density, i.e., the highest seeding density with linear growth between days 1 and 3.
(§6) The cells were seeded at a density of 4.0x10^3 to 7.5x10^3 (cell type-dependent) in 96-well clear, flat-bottom microplates (Corning Life Sciences, Sigma-Aldrich) in 100 µl culture medium supplemented with 10% FBS and cultured for 24h. Cell viability was determined using the resazurin assay after 24h drug treatment (Fig. 6). Percentage cell viability was calculated as 100% × (absorbance of treated cells – absorbance of background controls) / (absorbance of matched solvent vehicle controls – absorbance of background controls). Normalized growth rate inhibition (GR) was assessed using the absorbance of untreated cells after the time of plating (t = 0). […] For combination treatment, the monotherapy data were evaluated with the IDACombo (version 1.0.2)[20] package in R to predict potential drug combinations (Table 1). SynergyFinder (version 3.2.10)[21] package in R was used to identify synergistic drug combinations.

[9] = tested on: eight TNBC cell lines (BT-549, CAL-148, HCC1806, HCC38, HCC70, MDA-MB-436, MDA-MB-453, MDA-MB-468); experiment: Monotherapy drug screen, mean across the TNBC cell lines; conditions: 24 h
Procedure: as §3, §4, §5, §6

CC(C)C[C@H](NC(=O)[C@H](Cc1ccccc1)NC(=O)c1cnccn1)B(O)O [Bortezomib]
IC50 ([1]; MDA-MB-468, 24 h drug treatment, read-out: IC50): 0.054 µM | IC50 ([1]; MDA-MB-468, growth rate inhibition concentration at GR(c) = 0.5, 24 h, read-out: GR50 (the source's name)): 0.017 µM | AUC ([1]; MDA-MB-468): 0.57 | IC50 ([2]; MDA-MB-436, growth rate inhibition concentration at GR(c) = 0.5, 24 h, read-out: GR50 (the source's name)): 0.021 µM | AUC ([2]; MDA-MB-436): 0.75 | GRmax ([2]; MDA-MB-436): −0.76 | AUC ([3]; HCC1806): 0.70 | GRmax ([3]; HCC1806): 0.33 | IC50 ([3]; HCC1806, 24 h drug treatment, read-out: IC50): 0.79 µM | IC50 ([3]; HCC1806, growth rate inhibition concentration at GR(c) = 0.5, 24 h, read-out: GR50 (the source's name)): 0.38 µM | AUC ([4]; HCC70): 0.68 | GRmax ([4]; HCC70): −0.55 | IC50 ([4]; HCC70, 24 h drug treatment, read-out: IC50): 0.81 µM | IC50 ([4]; HCC70, growth rate inhibition concentration at GR(c) = 0.5, 24 h, read-out: GR50 (the source's name)): 0.1 µM | AUC ([5]; BT-549): 0.66 | GRmax ([5]; BT-549): 0.39 | IC50 ([5]; BT-549, growth rate inhibition concentration at GR(c) = 0.5, 24 h, read-out: GR50 (the source's name)): 0.1 µM | IC50 ([6]; MCF7, MCF-7, growth rate inhibition concentration at GR(c) = 0.5, 24 h, read-out: GR50 (the source's name)): 0.031 µM | AUC ([6]; MCF-7): 0.78 | GRmax ([6]; MCF-7): −0.43 | IC50 ([7]; 24 h drug treatment, read-out: IC50): 0.046 µM | IC50 ([7]; growth rate inhibition concentration at GR(c) = 0.5, 24 h, read-out: GR50 (the source's name)): 0.012 µM | AUC ([7]; 24 h): 0.59 | AUC ([8]; CAL-148): 0.77 | GRmax ([8]; CAL-148): 0.17 | IC50 ([8]; CAL-148, growth rate inhibition concentration at GR(c) = 0.5, 24 h, read-out: GR50 (the source's name)): 0.12 µM | IC50 ([9]; Homo sapiens, read-out: GR50 (mean ± SD)): 100 ± 110 nM | area under the dose response curve (AUC), mean ± SD ([9]; TNBC cell lines): 0.66 ± 0.10

CC(C)C[C@@H](C=O)NC(=O)[C@H](CC(C)C)NC(=O)[C@H](CC(C)C)NC(=O)OCc1ccccc1 [MG 132, MG-132] (Cbz-Leu-Leu-Leu-aldehyde)
IC50 ([1]; MDA-MB-468, 24 h): 1.4 µM | IC50 ([1]; MDA-MB-468, 24 h, read-out: GR50 (µM)): 0.61 µM | AUC ([1]; MDA-MB-468): 0.81 | IC50 ([2]; MDA-MB-436, 24 h, read-out: GR50 (µM)): 0.29 µM | AUC ([2]; MDA-MB-436): 0.86 | GRmax ([2]; MDA-MB-436): −0.88 | AUC ([3]; HCC1806): 0.82 | GRmax ([3]; HCC1806): 0.31 | IC50 ([3]; HCC1806, 24 h): 3.1 µM | IC50 ([3]; HCC1806, 24 h, read-out: GR50 (µM)): 2.5 µM | AUC ([4]; HCC70): 0.87 | GRmax ([4]; HCC70): −0.40 | IC50 ([4]; HCC70, 24 h): 3.7 µM | IC50 ([4]; HCC70, 24 h, read-out: GR50 (µM)): 2.1 µM | AUC ([5]; BT-549): 0.83 | GRmax ([5]; BT-549): 0.26 | IC50 ([5]; BT-549, 24 h): 4.3 µM | IC50 ([5]; BT-549, 24 h, read-out: GR50 (µM)): 1.4 µM | IC50 ([6]; MCF7, 24 h, read-out: GR50 (µM)): 0.57 µM | AUC ([6]; MCF-7): 0.87 | GRmax ([6]; MCF-7): −0.32 | IC50 ([7]; 24 h): 0.94 µM | IC50 ([7]; 24 h, read-out: GR50 (µM)): 0.4 µM | AUC ([7]; 24 h): 0.78 | AUC ([8]; CAL-148): 0.89 | GRmax ([8]; CAL-148): 0.22 | IC50 ([8]; CAL-148, 24 h, read-out: GR50 (µM)): 3.4 µM
